Read-outs that look alike come from different tables or passages of the source.
Legend:
PKCε = target: T1, PKCε (Homo sapiens, UniProt Q02156); assay: Upstate kinase Profiler counter-screening; assay type: biochemical
T1 construct: purchased Upstate
T1 sequence (Q02156 1-737): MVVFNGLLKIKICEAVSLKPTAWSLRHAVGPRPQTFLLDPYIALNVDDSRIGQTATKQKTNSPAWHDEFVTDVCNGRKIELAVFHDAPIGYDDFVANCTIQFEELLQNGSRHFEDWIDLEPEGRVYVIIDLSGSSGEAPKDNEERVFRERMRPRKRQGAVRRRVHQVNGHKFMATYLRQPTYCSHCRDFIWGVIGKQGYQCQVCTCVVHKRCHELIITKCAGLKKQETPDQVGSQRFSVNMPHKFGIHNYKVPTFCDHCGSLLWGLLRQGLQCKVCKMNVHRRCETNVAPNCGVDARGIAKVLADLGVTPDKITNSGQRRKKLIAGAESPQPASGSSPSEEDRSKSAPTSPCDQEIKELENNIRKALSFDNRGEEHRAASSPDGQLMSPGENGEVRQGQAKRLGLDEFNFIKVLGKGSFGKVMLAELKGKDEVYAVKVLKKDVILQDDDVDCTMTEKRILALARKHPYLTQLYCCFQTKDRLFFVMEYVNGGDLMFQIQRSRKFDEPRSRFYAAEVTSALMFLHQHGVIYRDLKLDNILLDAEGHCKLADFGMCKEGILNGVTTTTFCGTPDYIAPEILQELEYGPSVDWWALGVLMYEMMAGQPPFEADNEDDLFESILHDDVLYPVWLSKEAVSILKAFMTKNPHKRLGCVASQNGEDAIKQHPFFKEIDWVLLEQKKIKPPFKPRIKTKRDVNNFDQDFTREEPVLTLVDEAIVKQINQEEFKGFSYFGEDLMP

MSK1 = target: T2, MSK1 (Homo sapiens, UniProt O75582); assay: Upstate kinase Profiler counter-screening; assay type: biochemical
T2 construct: purchased Upstate
T2 sequence (O75582 whole entry, species assumed): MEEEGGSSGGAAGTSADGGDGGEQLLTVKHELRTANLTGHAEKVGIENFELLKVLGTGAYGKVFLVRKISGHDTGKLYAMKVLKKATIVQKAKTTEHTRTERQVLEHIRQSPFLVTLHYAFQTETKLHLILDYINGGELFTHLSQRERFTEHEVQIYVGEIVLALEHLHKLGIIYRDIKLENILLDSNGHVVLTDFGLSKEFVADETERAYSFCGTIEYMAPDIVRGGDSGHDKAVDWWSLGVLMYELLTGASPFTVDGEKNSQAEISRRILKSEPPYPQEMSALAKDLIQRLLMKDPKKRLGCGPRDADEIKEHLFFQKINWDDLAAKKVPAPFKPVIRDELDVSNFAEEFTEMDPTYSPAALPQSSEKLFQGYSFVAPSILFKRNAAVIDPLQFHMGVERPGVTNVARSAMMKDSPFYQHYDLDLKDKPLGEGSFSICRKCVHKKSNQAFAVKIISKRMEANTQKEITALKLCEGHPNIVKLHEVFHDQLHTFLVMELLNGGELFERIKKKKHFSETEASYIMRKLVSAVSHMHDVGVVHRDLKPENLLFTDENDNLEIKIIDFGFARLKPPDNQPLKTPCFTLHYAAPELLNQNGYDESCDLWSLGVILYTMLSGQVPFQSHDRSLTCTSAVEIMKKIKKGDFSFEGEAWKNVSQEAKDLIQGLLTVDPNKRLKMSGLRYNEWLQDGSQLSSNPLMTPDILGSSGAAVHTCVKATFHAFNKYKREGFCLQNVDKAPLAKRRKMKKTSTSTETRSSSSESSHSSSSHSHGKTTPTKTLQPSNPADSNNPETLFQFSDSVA

[1] = test system: lymphocyte proliferation (BrdU incorporation)
Description: The samples were collected in tubes containing heparin and shipped to a central laboratory for evaluation. Whole blood from each sample was diluted 1:5 in complete RPMI media and 200 microliter aliquots were added to wells of a 96-well plate. Samples from each time point were either stimulated with PHA (0.01 mg/ml final concentration), or not stimulated. […] Samples were stained with FITC conjugated anti-CD45 antibody. RBC's were lysed and the remaining cells were fixed, permeabilized and treated with DNase. The samples were then incubated with an anti-BrdU antibody. Washed cells were re-suspended and the CD45 and BrdU-positive and −negative populations were detected by FACS. FIGS. 10, 12A, and 12B show the percent of BrdU incorporation for samples taken for various doses.

Fes = target: T3, Fes (Homo sapiens, UniProt P07332); assay: Upstate kinase Profiler counter-screening; assay type: biochemical
T3 construct: purchased Upstate
T3 sequence (P07332 whole entry, species assumed): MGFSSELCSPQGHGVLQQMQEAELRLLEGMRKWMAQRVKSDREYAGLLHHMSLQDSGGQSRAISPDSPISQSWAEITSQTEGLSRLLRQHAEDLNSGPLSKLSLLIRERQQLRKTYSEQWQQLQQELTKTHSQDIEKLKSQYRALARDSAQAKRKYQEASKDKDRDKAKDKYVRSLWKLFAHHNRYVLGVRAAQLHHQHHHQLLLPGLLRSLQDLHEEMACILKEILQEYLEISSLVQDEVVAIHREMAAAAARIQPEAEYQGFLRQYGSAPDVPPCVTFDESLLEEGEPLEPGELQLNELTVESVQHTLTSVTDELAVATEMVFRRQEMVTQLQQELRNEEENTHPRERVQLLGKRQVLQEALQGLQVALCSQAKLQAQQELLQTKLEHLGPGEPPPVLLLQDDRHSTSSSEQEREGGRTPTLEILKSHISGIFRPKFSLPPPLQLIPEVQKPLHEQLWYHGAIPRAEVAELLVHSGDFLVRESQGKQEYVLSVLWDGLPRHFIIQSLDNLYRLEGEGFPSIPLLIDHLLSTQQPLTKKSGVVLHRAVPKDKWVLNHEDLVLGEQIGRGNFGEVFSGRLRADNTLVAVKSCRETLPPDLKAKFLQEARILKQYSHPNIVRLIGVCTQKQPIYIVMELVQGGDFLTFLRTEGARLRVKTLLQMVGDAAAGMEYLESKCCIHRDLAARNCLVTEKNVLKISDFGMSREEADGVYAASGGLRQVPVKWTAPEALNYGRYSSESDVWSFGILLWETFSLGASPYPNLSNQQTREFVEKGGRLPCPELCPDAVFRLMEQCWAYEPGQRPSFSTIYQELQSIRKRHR

Blk = Blk (Mus musculus, UniProt P16277)
Blk, sequence (P16277 2-499 limits assumed): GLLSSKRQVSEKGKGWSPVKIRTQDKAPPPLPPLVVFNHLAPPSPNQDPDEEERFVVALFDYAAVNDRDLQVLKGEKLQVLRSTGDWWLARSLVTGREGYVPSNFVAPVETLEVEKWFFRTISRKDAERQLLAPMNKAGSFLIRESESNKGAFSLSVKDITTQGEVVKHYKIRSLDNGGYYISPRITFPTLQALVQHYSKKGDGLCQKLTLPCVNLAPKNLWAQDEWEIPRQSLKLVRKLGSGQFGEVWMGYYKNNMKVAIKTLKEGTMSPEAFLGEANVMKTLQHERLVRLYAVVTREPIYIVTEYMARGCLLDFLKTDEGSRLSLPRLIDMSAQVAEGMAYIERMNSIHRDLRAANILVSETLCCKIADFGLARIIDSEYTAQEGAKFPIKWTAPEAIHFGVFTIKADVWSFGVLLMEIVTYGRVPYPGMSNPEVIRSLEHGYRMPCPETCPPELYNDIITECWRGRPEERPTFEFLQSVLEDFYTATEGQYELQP

YES = target: T4, YES (Homo sapiens, UniProt P07947); assay: Upstate kinase Profiler counter-screening; assay type: biochemical; settings: at 1 μM
T4 construct: purchased Upstate
T4 sequence (P07947 whole entry, species assumed): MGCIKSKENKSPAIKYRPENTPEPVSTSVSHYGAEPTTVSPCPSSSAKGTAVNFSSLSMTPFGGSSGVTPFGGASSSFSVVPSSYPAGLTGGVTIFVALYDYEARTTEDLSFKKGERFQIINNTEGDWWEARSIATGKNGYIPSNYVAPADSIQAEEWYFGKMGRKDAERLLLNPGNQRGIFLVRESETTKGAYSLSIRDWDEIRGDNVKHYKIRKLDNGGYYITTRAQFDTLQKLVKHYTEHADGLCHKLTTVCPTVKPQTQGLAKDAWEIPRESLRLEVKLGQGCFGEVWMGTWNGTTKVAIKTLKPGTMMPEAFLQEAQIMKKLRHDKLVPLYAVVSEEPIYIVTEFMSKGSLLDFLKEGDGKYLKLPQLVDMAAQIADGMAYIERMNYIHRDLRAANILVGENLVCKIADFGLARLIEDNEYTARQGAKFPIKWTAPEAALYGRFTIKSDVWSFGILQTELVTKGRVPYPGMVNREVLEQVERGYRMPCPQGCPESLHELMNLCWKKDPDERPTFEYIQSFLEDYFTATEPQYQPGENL

[2] = test system: tumor cell lines including the standard NCI panel; settings: inhibition of CDK2/CDK1 in tumor cells

With `CCc1cnn2c(NCc3ccc[n+]([O-])c3)cc(N3CCCC[C@H]3CCO)nc12` [Formula II] the “% remaining activity” value (PKCε; at 1 μM) was 93%, the “% remaining activity” value (PKCε; at 10 μM) was 88% and the “% remaining activity” value (MSK1; at 1 μM) was 94%. For the same compound, the “% remaining activity” value (MSK1; at 10 μM) was 97%, the “% BrdU incorporated at 8 hrs post-infusion” value (“% BrdU incorporated” below) ([1]; Patient A, 1.85 mg/M2, Pre-Dose 28) was 65% and the “% BrdU incorporated” value ([1]; Patient B, 3.7 mg/M2, Pre-Dose 10) was 13%. For the same compound, the “% BrdU incorporated” value ([1]; Patient C, 7.4 mg/M2, Pre-Dose 51) was 11%, the “% BrdU incorporated” value ([1]; Patient F, 50 mg/M2, Pre-Dose 33) was 1% and the “% BrdU incorporated” value ([1]; Patient G, 58 mg/M2, Pre-Dose 23) was 0.7%. For the same compound, the “% BrdU incorporated” value ([1]; Patient H, 41.4 mg/M2, Pre-Dose 41) was 45%, the “body-weight loss over the course of the experiment” value (maximum dosage level (48 mg/kg IP daily for 10 days)) was “about 5%” and the MTD (once per day IP for 7 days, dose inducing 20% loss of body weight) was 60 mg/kg. For the same compound, the “% remaining activity” value (Fes; at 1 μM) was 87%, the “% remaining activity” value (Fes; at 10 μM) was 91% and the “% remaining activity” value (Blk; at 1 μM) was 69%. For the same compound, the “% remaining activity” value (Blk; at 10 μM) was 100%, the “% remaining activity” value (YES) was 92% and the “number of tumor cell lines with cell cycle arrest and apoptosis” value [2] was “more than 100 tumor cell lines”.
